# Measured values as given in patent US4272437A, “Antibacterial agents, and 4-thio azetidinone intermediates” (priority 1979, dated 1981).
# Like-named read-outs stand apart in the source and are kept apart here.
# Legend:
# [1] = Mouse blood levels after intramuscular administration; format: in vivo; settings: average of 6 mice, read-out: Mouse blood level
# Protocol: Mouse blood levels after intramuscular administration of representative compounds of the present invention were determined and are reported in the table below.
# K. pneumoniae A15130 = assay: In vivo protection of mice, lethal infection with K. pneumoniae A15130; settings: Klebsiella pneumoniae, IM, 2 treatments, 1.2 × 10^3 organisms, read-out: PD50
# Protocol: (§1) Representative compounds of the present invention were also tested in vivo in mice and their PD50 (dose of compound in mg/kg required to protect 50% of the treated mice against an otherwise lethal infection of a micro-organism) values determined with respect to the test organisms shown below.
# Staph. aureus A-9537 = assay: MIC, tube dilution, Staphylococcus aureus A9537; format: cell-based; settings: Staphylococcus aureus, A9537, Staph. aureus A9537; overnight 37° C., Nutrient Broth; read-out: Minimum Inhibitory Concentration (M.I.C.)
# Excerpt: (§2) Representative compounds of the present invention were subjected to in vitro antibiotic screening against a variety of microorganisms.
# Str. pneumoniae A-9585 = assay: MIC, tube dilution, Streptococcus pneumoniae A9585; format: cell-based; settings: Streptococcus pneumoniae, A9585, Str. pneumoniae A9585; overnight 37° C., Nutrient Broth; read-out: Minimum Inhibitory Concentration (M.I.C.)
# Excerpt: as §2
# Ser. marcescens A-20019 = assay: MIC, tube dilution, Serratia marcescens A20019; format: cell-based; settings: Serratia marcescens, A20019, Serratia marcescens A20019; overnight 37° C.; read-out: Minimum Inhibitory Concentration (M.I.C.)
# Excerpt: as §2
# K. pneumoniae A-15130 = assay: MIC, tube dilution, Klebsiella pneumoniae A15130; format: cell-based; settings: Klebsiella pneumoniae, A15130, K. pneumoniae A15130; overnight 37° C.; read-out: Minimum Inhibitory Concentration (M.I.C.)
# Excerpt: as §2
# E. coli A-15119 = assay: MIC, tube dilution, Escherichia coli A15119; format: cell-based; settings: Escherichia coli, A15119, E. coli A15119; overnight 37° C.; read-out: Minimum Inhibitory Concentration (M.I.C.)
# Excerpt: as §2
# [2] = system: Staph. aureus A-9537 and 50% serum; assay: MIC, tube dilution, Staph. aureus A9537 + 50% serum; format: cell-based, Staphylococcus aureus; settings: Staphylococcus aureus, overnight 37° C., read-out: Minimum Inhibitory Concentration (M.I.C.)
# Excerpt: as §2
# Ps. aeruginosa A-21213 = assay: MIC, tube dilution, Pseudomonas aeruginosa A21213; format: cell-based; settings: Pseudomonas aeruginosa A21213; overnight 37° C.; read-out: Minimum Inhibitory Concentration (M.I.C.)
# Excerpt: as §2
# Ent. cloacae A-9656 = assay: MIC, tube dilution, Enterobacter cloacae A9656; format: cell-based; settings: Enterobacter cloacae, A9656, Enterobacter cloacae A9656; overnight 37° C.; read-out: Minimum Inhibitory Concentration (M.I.C.)
# Excerpt: as §2
# Proteus rettgeri A21203 = assay: MIC, tube dilution, Proteus rettgeri A21203; format: cell-based; settings: Providencia rettgeri, A21203, Proteus rettgeri A21203; overnight 37° C.; read-out: Minimum Inhibitory Concentration (M.I.C.)
# Excerpt: as §2
# Str. pyogenes A-9604 = assay: MIC, tube dilution, Streptococcus pyogenes A9604; format: cell-based; settings: Streptococcus pyogenes, A9604, Str. pyogenes A9604; overnight 37° C., Nutrient Broth; read-out: Minimum Inhibitory Concentration (M.I.C.)
# Excerpt: as §2
# [3] = system: Staph. aureus (Pen-Res) A-9606; assay: MIC, tube dilution, Staphylococcus aureus A9606 (Pen-Res); format: cell-based; settings: Staphylococcus aureus, Staph. aureus A9606 (Pen-Res); overnight 37° C.; read-out: Minimum Inhibitory Concentration (M.I.C.)
# Excerpt: as §2
# S. pneumoniae A9585 = assay: In vivo protection of mice, lethal infection with S. pneumoniae A9585; settings: Streptococcus pneumoniae, A9585, im, 2 treatments, read-out: PD50
# Protocol: as §1
# [4] = system: Staph. aureus (Meth-Res) A-15097; assay: MIC, tube dilution, Staphylococcus aureus A15097 (Meth-Res); format: cell-based; settings: Staphylococcus aureus, Staph. aureus A15097 (Meth-Res); overnight 37° C.; read-out: Minimum Inhibitory Concentration (M.I.C.)
# Excerpt: as §2
# E. coli A-20341-1 = assay: MIC, tube dilution, Escherichia coli A20341-1; format: cell-based; settings: Escherichia coli, A203411; E. coli A20341-1; overnight 37° C.; read-out: Minimum Inhibitory Concentration (M.I.C.)
# Excerpt: as §2
# S. pyogenes A9604 = assay: In vivo protection of mice, lethal infection with S. pyogenes A9604; settings: Streptococcus pyogenes, A9604, im, 2 treatments, read-out: PD50
# Protocol: as §1
# Str. faecalis A-20688 = assay: MIC, tube dilution, Streptococcus faecalis A20688; format: cell-based; settings: Enterococcus faecalis, A20688, Str. faecalis A20688; overnight 37° C.; read-out: Minimum Inhibitory Concentration (M.I.C.)
# Excerpt: as §2
# S. aureus A9537 = assay: In vivo protection of mice, lethal infection with S. aureus A9537; settings: Staphylococcus aureus, 2 treatments, read-out: PD50
# Protocol: as §1
# Ps. aeruginosa A-9843A = assay: MIC, tube dilution, Pseudomonas aeruginosa A9843A; format: cell-based; settings: Pseudomonas aeruginosa, A9843A, read-out: Minimum Inhibitory Concentration (M.I.C.), Pseudomonas aeruginosa A9843A; overnight 37° C.
# Excerpt: as §2
# [5] = system: Klebsiella species A20468; assay: MIC, tube dilution, Klebsiella species A20468; format: cell-based; settings: Klebsiella species (K. pneumoniae) A20468; overnight 37° C.; read-out: Minimum Inhibitory Concentration (M.I.C.)
# Excerpt: as §2
# S. aureus A9606 = assay: In vivo protection of mice, lethal infection with S. aureus A9606; settings: Staphylococcus aureus, IM, 2 treatments, 8 × 10^8 organisms, read-out: PD50
# Protocol: as §1
# Proteus vulgaris A21559 = assay: MIC, tube dilution, Proteus vulgaris A21559; format: cell-based; settings: Proteus vulgaris, A21559, Proteus vulgaris A21559; overnight 37° C.; read-out: Minimum Inhibitory Concentration (M.I.C.)
# Excerpt: as §2
# E. coli A15119 = assay: In vivo protection of mice, lethal infection with E. coli A15119; settings: Escherichia coli, IM, 2 treatments, 7.4 × 10^5 organisms, read-out: PD50
# Protocol: as §1
compound,measurement,setting,value
"NCCCCC1=C(C(=O)O)N2C(=O)CC2S1 (centres unmarked) [Example 73, 2-(4'-Aminobutyl)-penem-3-carboxylic Acid]",concentration at 10 min,[1]; 10 minutes after IM 40 mg/kg,37900 ng/mL
same,concentration at 20 min,[1]; 20 minutes after IM 40 mg/kg,30800 ng/mL
same,concentration at 0.5 h,[1]; 30 minutes after IM 40 mg/kg,21200 ng/mL
same,concentration at 0.75 h,[1]; 45 minutes after IM 40 mg/kg,13200 ng/mL
same,concentration at 1 h,[1]; 60 minutes after IM 40 mg/kg,8400 ng/mL
same,concentration at 1.5 h,[1]; 90 minutes after IM 40 mg/kg,3400 ng/mL
same,concentration at 2 h,[1]; 120 minutes after IM 40 mg/kg,< 3000 ng/mL
same,ED50,K. pneumoniae A15130,> 100 mg/kg
same,MIC,Staph. aureus A-9537,0.25 µg/mL
same,MIC,Str. pneumoniae A-9585,0.13 µg/mL
same,MIC,Ser. marcescens A-20019,16 µg/mL
same,MIC,K. pneumoniae A-15130,32 µg/mL
same,MIC,E. coli A-15119,8 µg/mL
same,MIC,[2],1 µg/mL
same,MIC,Ps. aeruginosa A-21213,> 125 µg/mL
same,MIC,Ent. cloacae A-9656,32 µg/mL
same,MIC,Proteus rettgeri A21203,16 µg/mL
same,MIC,Str. pyogenes A-9604,0.25 µg/mL
same,MIC,[3],32 µg/mL
same,ED50,S. pneumoniae A9585; 3 × 10^4 organisms,1.2 mg/kg
same,ED50,S. pneumoniae A9585; 3.4 × 10^4 organisms,1.56 mg/kg
same,MIC,[4],16 µg/mL
same,MIC,E. coli A-20341-1,125 µg/mL
same,ED50,S. pyogenes A9604; 1.2 × 10^3 organisms,0.89 mg/kg
same,ED50,S. pyogenes A9604; 8 × 10^3 organisms,0.51 mg/kg
same,MIC,Str. faecalis A-20688,32 µg/mL
same,ED50,"S. aureus A9537; A9537, im, IM, 1 × 10^6 organisms",0.2 mg/kg
same,ED50,"S. aureus A9537; A9537, im, IM, 6.8 × 10^5 organisms",0.2 mg/kg
same,ED50,"S. aureus A9537; A9537, im, IM, 8 × 10^5 organisms",0.2 mg/kg
same,ED50,"S. aureus A9537; A9537, po, PO, 1 × 10^6 organisms",0.5 mg/kg
same,MIC,Ps. aeruginosa A-9843A,> 125 µg/mL
same,MIC,[5],> 125 µg/mL
same,ED50,S. aureus A9606,6.3 mg/kg
same,MIC,Proteus vulgaris A21559,32 µg/mL
same,ED50,E. coli A15119,25 mg/kg
